Like-named read-outs stand apart in the source and are kept apart here.
Legend:
[1] = Chronic DIO Mouse, first study (food intake, body weight, insulin tolerance test, glucose tolerance test, plasma insulin, fed blood glucose); format: in vivo; details: DIO mice; for Insulin Tolerance Test, Blood Glucose AUC: day 19; for Intraperitoneal Glucose Tolerance Test Blood Glucose AUC: day 23
Protocol: Male 14-20-week old diet-induced obese mice were ordered from Taconic. Mice were started on a 60% fat diet (D12492, Research Diets, New Brunswick, N.J.) at 6 weeks of age. Mice were single-housed.
(§1) Test compounds were formulated in 10% PEG400 and 10% solutol. Test compounds were administered by oral gavage (5 ml kg^−1).
The test compound was formulated in 10% PEG400 and 10% solutol. DIO mice received vehicle, test compound (@ 1, 3 and 10 mg/kg) daily for 26 days. At the end of the experiment, the mice were euthanized and blood and tissues were collected.
Body weight and food weight (food intake) were monitored daily for days 1-5 and twice weekly thereafter. Fed blood glucose was measured weekly.
An insulin tolerance test (0.5 U/kg Humulin, ip) was performed on day 19 after a 4 hour food removal. Blood glucose was measured at 0, 15, 30, 60 and 120 minutes after insulin. […] Blood glucose was measured at 0, 30, 60 and 120 minutes after glucose challenge.
Blood glucose was measured from the tail vein with a Lifescan glucometer. Plasma insulin was measured with an ELISA or HTRF kit (Cisbio). Plasma parameters were measured with an Olympus clinical chemistry analyzer.
Compound #44 was tested according to the procedure as described above, with results as listed in Table BIO-4A through Table BIO4-G, below.

[2] = Open Field Locomotor Activity in Rats (CNS activity), stereotypic counts; format: in vivo, rat; details: n=8, 4 hours, dose not printed in row (doses 3 and 10 mg/kg)
Text: (§2) Male Sprague Dawley rats were ordered from Charles River (225-250 gm upon arrival). They were fed standard chow diet (Purina 5001) and housed 2 per cage. Male C57bl/6j mice were ordered from Charles River at 22-25 g and housed 3 per cage. They were fed standard chow (Purina 5001). All animals were housed in a temperature-controlled room with 12-hour light/dark cycle. Animals were given food and water ad libitum, except as noted.
as §1
Male SD rats were weighed and transferred to the Activity Chambers with access to water. After a 2-hr acclimation period, the rats were dosed with vehicle or test compound (@ 3 and 10 mg/kg). The Activity Chamber monitoring software program was initiated and automatically recorded rat activity in each chamber for a period of 4 hours. At the end of the 4 hour monitoring period, the software was stopped and the rats were removed from the activity chambers. The rats were anesthetized and blood samples were obtained via retro-orbital puncture to determine plasma concentration of compounds. The rats were immediately euthanized with CO2 and the brains removed, washed with PBS, frozen on dry ice and stored at −80° C. for receptor occupancy (RO) analysis. […]

[3] = Mouse Fast PK/BBB (plasma and brain concentration); format: in vivo; details: male, C57bl/6j, oral, N=3 (dose given as 30 mg/kg and 20 mg/kg)
Text: as §2, §1
Male C57bl/6j mice were dosed with test compounds at 30 mg/kg. Plasma was collected via retro-orbital bleeding at 1 hr and 4 hrs after dosing. Whole brain without cerebellum was collected at 4 hrs after dosing. Wet brain weight was recorded before freezing. Brains were homogenized in saline and sent for analysis for determination of concentration of test compound.
Table BIO-3 below present results for representative compounds of the present invention, tested according to the procedure as described above. Each compound was tested in three animals (N=3) and administered PA at 20 mg/kg

[4] = Mouse Fast PK/BBB (plasma and brain concentration); format: in vivo; details: male, C57bl/6j, brain, oral, N=3 (dose given as 30 mg/kg and 20 mg/kg), read-out: BRAIN Mean Conc. ± Std. Dev

Q: With `O=c1cc(NC2CCN(S(=O)(=O)C(F)(F)F)CC2)c2cc(C(c3ccc(Cl)cc3)c3ccc(Cl)cc3)ccc2[nH]1` [Compound #44, 6-(bis(4-chlorophenyl)methyl)-4-(1-(trifluoromethylsulfonyl)piperidin-4-ylamino)quinolin-2(1H)-one] as the compound, how does the “Mean Daily Food Intake (Std Err)” value ([1]; 3 mg/kg daily, Day 11) read?
A: The value was 1.95 (0.11) Grams.

Q: What about the “Insulin Tolerance Test, Blood Glucose AUC” value ([1]; 3 mg/kg daily) of the same compound?
A: The value was 16879.5 mg·min/dL.

Q: What about the “Insulin Tolerance Test Mean Blood Glucose (Std Err)” value ([1]; 3 mg/kg daily, day 19, 0 min after insulin) of the same compound?
A: The value was 189.4 (7.3) mg/dL.

Q: What about the “Insulin Tolerance Test Mean Blood Glucose (Std Err)” value ([1]; 3 mg/kg daily, day 19, 15 min after insulin) of the same compound?
A: Its value is 178.8 (12.5) mg/dL.

Q: And the “Insulin Tolerance Test Mean Blood Glucose (Std Err)” value ([1]; 3 mg/kg daily, day 19, 30 min after insulin)?
A: Its value is 121.4 (13.7) mg/dL.

Q: And the “Insulin Tolerance Test Mean Blood Glucose (Std Err)” value ([1]; 3 mg/kg daily, day 19, 60 min after insulin)?
A: Its value is 119.7 (9.6) mg/dL.

Q: And the “Insulin Tolerance Test Mean Blood Glucose (Std Err)” value ([1]; 3 mg/kg daily, day 19, 120 min after insulin)?
A: The value was 155.3 (9.5) mg/dL.

Q: And the “Intraperitoneal Glucose Tolerance Test Blood Glucose AUC” value ([1]; 3 mg/kg daily)?
A: Its value is 29983.1 mg·min/dL.

Q: What about the “Intraperitoneal Glucose Tolerance Test Mean Blood Glucose (Std Err)” value ([1]; 3 mg/kg daily, day 23, 0 min after glucose) of the same compound?
A: Its value is 161.8 (5.0) mg/dL.

Q: What about the “Intraperitoneal Glucose Tolerance Test Mean Blood Glucose (Std Err)” value ([1]; 3 mg/kg daily, day 23, 30 min after glucose) of the same compound?
A: Its value is 352.0 (22.6) mg/dL.

Q: What about the “Intraperitoneal Glucose Tolerance Test Mean Blood Glucose (Std Err)” value ([1]; 3 mg/kg daily, day 23, 60 min after glucose) of the same compound?
A: The value was 264.6 (25.6) mg/dL.

Q: And the “Intraperitoneal Glucose Tolerance Test Mean Blood Glucose (Std Err)” value ([1]; 3 mg/kg daily, day 23, 120 min after glucose)?
A: The value was 169.6 (9.2) mg/dL.

Q: What about the “Fed Blood Glucose” value ([1]; 10 mg/kg daily oral, Day 0, mean (Std Err)) of the same compound?
A: The value was 161.88 (6.71) mg/dL.

Q: And the “Fed Blood Glucose” value ([1]; 10 mg/kg daily oral, Day 18, mean (Std Err))?
A: Its value is 154.00 (5.53) mg/dL.

Q: What about the “Plasma Insulin” value ([1]; 10 mg/kg daily oral, mean (Std Err)) of the same compound?
A: The value was 2.14 (0.3) ng/mL.

Q: What about the “Mean Body Weight (Std Err)” value ([1]; 10 mg/kg daily, Day 1) of the same compound?
A: The value was 43.26 (0.40) Grams.

Q: And the “Mean Body Weight (Std Err)” value ([1]; 10 mg/kg daily, Day 2)?
A: The value was 42.39 (0.36) Grams.

Q: And the “Mean Daily Food Intake (Std Err)” value ([1]; 10 mg/kg daily, Day 2)?
A: The value was 2.24 (0.10) Grams.

Q: What about the “Mean Body Weight (Std Err)” value ([1]; 10 mg/kg daily, Day 3) of the same compound?
A: The value was 41.61 (0.41) Grams.

Q: What about the “Mean Daily Food Intake (Std Err)” value ([1]; 10 mg/kg daily, Day 3) of the same compound?
A: Its value is 2.29 (0.16) Grams.

Q: And the “Mean Body Weight (Std Err)” value ([1]; 10 mg/kg daily, Day 4)?
A: The value was 40.76 (0.37) Grams.

Q: And the “Mean Daily Food Intake (Std Err)” value ([1]; 10 mg/kg daily, Day 4)?
A: The value was 1.70 (0.08) Grams.

Q: What about the “Mean Body Weight (Std Err)” value ([1]; 10 mg/kg daily, Day 5) of the same compound?
A: The value was 40.17 (0.39) Grams.

Q: And the “Mean Daily Food Intake (Std Err)” value ([1]; 10 mg/kg daily, Day 5)?
A: The value was 1.58 (0.11) Grams.

Q: And the “Mean Body Weight (Std Err)” value ([1]; 10 mg/kg daily, Day 8)?
A: The value was 38.16 (0.48) Grams.

Q: And the “Mean Daily Food Intake (Std Err)” value ([1]; 10 mg/kg daily, Day 8)?
A: The value was 1.80 (0.12) Grams.

Q: And the “Mean Body Weight (Std Err)” value ([1]; 10 mg/kg daily, Day 10)?
A: The value was 37.47 (0.56) Grams.

Q: And the “Mean Daily Food Intake (Std Err)” value ([1]; 10 mg/kg daily, Day 10)?
A: Its value is 2.02 (0.13) Grams.

Q: And the “Mean Body Weight (Std Err)” value ([1]; 10 mg/kg daily, Day 11)?
A: Its value is 36.67 (0.55) Grams.

Q: And the “Mean Daily Food Intake (Std Err)” value ([1]; 10 mg/kg daily, Day 11)?
A: Its value is 1.94 (0.11) Grams.

Q: What about the “Insulin Tolerance Test, Blood Glucose AUC” value ([1]; 10 mg/kg daily) of the same compound?
A: The value was 14258.3 mg·min/dL.

Q: What about the “Insulin Tolerance Test Mean Blood Glucose (Std Err)” value ([1]; 10 mg/kg daily, day 19, 0 min after insulin) of the same compound?
A: Its value is 163.5 (5.9) mg/dL.

Q: What about the “Insulin Tolerance Test Mean Blood Glucose (Std Err)” value ([1]; 10 mg/kg daily, day 19, 15 min after insulin) of the same compound?
A: The value was 138.4 (20.0) mg/dL.

Q: What about the “Insulin Tolerance Test Mean Blood Glucose (Std Err)” value ([1]; 10 mg/kg daily, day 19, 30 min after insulin) of the same compound?
A: Its value is 96.2 (11.0) mg/dL.

Q: And the “Insulin Tolerance Test Mean Blood Glucose (Std Err)” value ([1]; 10 mg/kg daily, day 19, 60 min after insulin)?
A: Its value is 99.7 (9.7) mg/dL.

Q: What about the “Insulin Tolerance Test Mean Blood Glucose (Std Err)” value ([1]; 10 mg/kg daily, day 19, 120 min after insulin) of the same compound?
A: Its value is 143.5 (8.3) mg/dL.

Q: What about the “Intraperitoneal Glucose Tolerance Test Blood Glucose AUC” value ([1]; 10 mg/kg daily) of the same compound?
A: Its value is 25680.0 mg·min/dL.

Q: And the “Intraperitoneal Glucose Tolerance Test Mean Blood Glucose (Std Err)” value ([1]; 10 mg/kg daily, day 23, 0 min after glucose)?
A: The value was 141.6 (6.5) mg/dL.

Q: What about the “Intraperitoneal Glucose Tolerance Test Mean Blood Glucose (Std Err)” value ([1]; 10 mg/kg daily, day 23, 30 min after glucose) of the same compound?
A: The value was 319.1 (26.9) mg/dL.

Q: What about the “Intraperitoneal Glucose Tolerance Test Mean Blood Glucose (Std Err)” value ([1]; 10 mg/kg daily, day 23, 60 min after glucose) of the same compound?
A: Its value is 225.1 (20.3) mg/dL.

Q: What about the “Intraperitoneal Glucose Tolerance Test Mean Blood Glucose (Std Err)” value ([1]; 10 mg/kg daily, day 23, 120 min after glucose) of the same compound?
A: The value was 128.4 (5.7) mg/dL.

Q: And the “Stereotypic Counts (MEAN)” value ([2]; first #44 row)?
A: The value was 3250.

Q: And the “Stereotypic Counts (MEAN)” value ([2]; second #44 row)?
A: The value was 2850.

Q: And the concentration at 4 h ([3]; brain, read-out: BRAIN Mean Conc. ± Std. Dev)?
A: The concentration at 4 h was 11.8 ± 8.99 ng/mL.

Q: And the concentration at 1 h ([3]; plasma, 1 hr, read-out: PLASMA Mean Conc. ± Std. Dev)?
A: Its concentration at 1 h is 1050 ± 122 ng/mL.

Q: And the concentration at 4 h ([3]; plasma, read-out: PLASMA Mean Conc. ± Std. Dev)?
A: Its concentration at 4 h is 1180 ± 148 ng/mL.

Q: And the concentration at 1 h [4]?
A: Its concentration at 1 h is 7.62 ± 2.28 ng/mL.
